Source: patent US12459900B2, “Compounds for treating conditions related to oxidative stress” (priority 2021, dated 2025)

Legend:
[1] = DPPH antioxidant (free radical scavenging) assay; format: biochemical; conditions: duplicate, 5 concentrations, read at 517 nm; read-out: IC50 (DPPH assay, anti-oxidant activity)
Experimental: NWD-19, NWD-15, and NWD-14 were evaluated for antioxidant activity using the 2,2-diphenyl-1-picrylhydrazyl (DPPH) assay. The DPPH assay was used to predict antioxidant activities by mechanism in which antioxidants act to inhibit lipid oxidation, so scavenging of DPPH radical and therefore determinate free radical scavenging capacity. The DPPH antioxidant assay kit (Dokindo Molecular Technologies, Inc.) was used, and the plates were read at 517 nm on the BioTek Synergy HT plate reader (Gen5 software). All compounds were tested in duplicate at 5 concentrations to determine the anti-oxidant activity of each compound.

[2] = tested on: Benzalkonium chloride induced dry eyes; test: Benzalkonium chloride induced dry eyes in C57BL/6 mice; format: in vivo; conditions: daily topical drops 10 μM from day 8 to day 21 of 0.2% BAC treatment
Experimental: Benzalkonium chloride (BAC) is a commonly used preservative in ophthalmic solutions. However, it has been reported to increase the risk of dry eye disease due to its toxicity on the ocular surface, the conjunctiva, the cornea and even deeper ocular structures. 5 uL 0.2% BAC in mice eyes has been reported to cause dry eye symptoms without affecting aqueous tear production, inflammation, or corneal smoothness (Richard Zhang, et al. Dose-dependent benzalkonium chloride toxicity imparts ocular surface epithelial changes with features of dry eye disease, The Ocular Surface, Volume 18, Issue 1, 2020, Pages 158-169).
Symptoms of dry eye disease were induced in 24 male and female C57/BL6 mice for 21 days using 0.2% daily eye drops of BAC. Daily topical application of NWD-19 at 10 μM concentration started at day 8 post BAC treatment and continued until day 21, whereas the control mice eyes were treated with PBS during this period. […] At pre-dose and subsequently on days 7, 14 and 21 post dose the mice eyes were examined by a veterinary ophthalmologist for corneal lesions and dry eye was also evaluated using a drop of 0.1% fluorescein solution in each treated eye and observation and scoring using a cobalt blue filter. […]

CT-26 cells = test: Cytotoxicity in CT-26 cancer cell line (cell titer glo 2.0); format: cell-based; conditions: Mus musculus, CT26; overnight incubation, triplicate, 6 concentrations; read-out: EC50 (percent survival, CT-26 cells)
Experimental: The CT-26 cell lines were plated at the appropriate pre-determined plating density in the 96 well plate and allowed to attach for about 16 hrs. After a suitable confluence was ensured (about 70-80%) the media was replaced with fresh media and the test compound was added to the plate in triplicate at 6 concentrations. Appropriate vehicle and positive controls were also added, and the plate was incubated overnight in a CO2 (95%)/O2 (5%) incubator at 37° C. temperature. After incubation the plate was assayed for cytotoxicity using cell titer glo 2.0 assay (Promega) on the BioTek Synergy HT plate reader (Gen5 software).

RPE primary cells = test: TBARS assay in RPE primary cells after AAPH induced oxidative stress; format: cell-based; conditions: AAPH 10 mM, activity up to 0.078 μM concentration
Experimental: Primary retinal pigment endothelial cell line (RPE) were plated in appropriate growth medium in a 96 well plate overnight (16-24 hrs). Cells were then treated with NWD-19 at 7 concentrations and incubated overnight. Following incubation all wells were treated with AAPH at 10 mM to induce oxidative stress and incubated overnight. The TBARS assay was then utilized to evaluate the anti-oxidant potential of the compound in the RPE cells at various concentrations.

[3] = tested on: Primary retinal pigment endothelial cell line (RPE); test: Protection from AAPH induced oxidative stress in RPE cells (viability, cell titer glo 2.0); format: cell-based; conditions: 1.25 μM NWD-19 pre-treatment overnight, AAPH 10 mM overnight
Experimental: Primary retinal pigment endothelial cell line (RPE) were plated in appropriate growth medium in a 96 well plate overnight (16-24 hrs). Once 80-90% confluence was achieved the cells were then treated with NWD-19 at a concentration range of 0.039 uM to 1.25 μM. Appropriate blanks were also added and the plate was incubated overnight in a CO2 (95%)/O2 (5%) incubator at 37° C. temperature. Following incubation all wells were treated with AAPH at 10 mM to induce oxidative stress and incubated overnight. After incubation the plate was assayed for viability using cell titer glo 2.0 assay (Promega).

Compound	IC50 [1] [nM]	condition of the eyes (corneal lesions, dry eye fluorescein scoring) compared to vehicle control eyes [2]	EC50 (CT-26 cells) [nM]	anti-oxidant activity in TBARS assay (malonaldehyde equivalents) (RPE primary cells)	cell survival after AAPH induced oxidative stress [3] [%]
O=c1cc(CCCC[P+](c2ccccc2)(c2ccccc2)c2ccccc2)[nH]n1-c1ccccc1 [NWD-14, (4-(5-oxo-1-phenyl-2,5-dihydro-1H-pyrazol-3-yl)butyl) triphenyl phosphonium bromide]	2800	–	–	–	–
CC1=NN(c2ccccc2)C(=O)C1CCCC[P+](c1ccccc1)(c1ccccc1)c1ccccc1 (stereo not shown) [NWD-15, (4-(3-methyl-5-oxo-1-phenyl-4,5-dihydro-1H-2l4-pyrazol-4-yl)butyl) triphenyl-phosphonium bromide]	2300	–	–	–	–
CC1=NN(c2ccccc2)C(=O)C1CCCCCCCCCC[P+](c1ccccc1)(c1ccccc1)c1ccccc1.[Br-] (stereo not shown) [NWD-19, (10-(3-methyl-5-oxo-1-phenyl-4,5-dihydro-1H-pyrazol-4-yl)decyl) triphenyl phosphonium bromide]	2100	masked improvement	9600	significant anti-oxidant activity	~50
